Values quoted from earlier work, collected in patent publication US20100221334A1, “COMPOSITIONS INCLUDING LEUKOTRIENE ANTAGONISTS AND NSAIDS AND METHODS OF USING THE SAME” (priority 2007, published 2010).

details: general statement on long-acting NSAIDs; species not given

| pharmacokinetic half-life | Compound |
| --- | --- |
| 8 to 9 h | O=C(c1ccccc1)c1ccc2n1CCC2C(=O)O (stereo not shown) [ketorolac] |
| about 7 hours | CCc1cccc2c3c([nH]c12)C(CC)(CC(=O)O)OCC3 (stereo not shown) [etodolac] |
| about 6 hours | CC(C(=O)O)c1ccc(-c2ccccc2)c(F)c1 (stereo not shown) [flurbiprofen] |
| up to 4 hours | Cc1cccc(Nc2ccccc2C(=O)O)c1C [mefenamic acid] |
